According to patent US7417061B2, “Oxadiazole compounds and compositions for delivering active agents” (MHR Institutional Partners IIA LP, priority 1999, dated 2008):

Assay: Oral delivery of rhGH with delivery agent compound in rats; serum rhGH by immunoassay
Assay type: in vivo, rat
Details: male Sprague-Dawley rats, compound 200 mg/kg, rhGH 3 mg/kg, 1 ml/kg, pooled samples (except compound 1)
Protocol: Oral gavage (PO) and/or intracolonic (IC) dosing solutions of delivery agent compound and rhGH in phosphate buffer were prepared. A solution of the compound was made either with the sodium salt of the compound or by converting the free acid to its sodium salt. Typically, a solution of the compound was prepared in phosphate buffer and stirred, adding one equivalent of sodium hydroxide (1.0 N) when making the sodium salt. The final dosing solutions were prepared by mixing the compound solution with an rhGH stock solution (15 mg rhGH/ml) and diluting to the desired volume (usually 3.0 ml). The compounds and rhGH dose amounts are listed below in Table 3.
The typical dosing and sampling protocols were as follows. Male Sprague-Dawley rats weighing between 200-250 g were fasted for 24 hours and administered ketamine (44 mg/kg) and chlorpromazine (1.5 mg/kg) 15 minutes prior to dosing. A dosing group of five rats was administered one of the dosing solutions. For oral gavage (PO), an 11 cm Rusch 8 French catheter was adapted to a 1 ml syringe with a pipette tip. The syringe was filled with dosing solution by drawing the solution through the catheter, which was then wiped dry. The catheter was placed down the esophagus leaving 1 cm of tubing past the rat's incisors. Solution was administered by pressing the syringe plunger. For intracolonic (IC) dosing, a 7.5 cm Rusch catheter tube (French 8 or 6) was adapted to a syringe with an Eppendorf pipette tip. The syringe was filled with the dosing solution by drawing the solution through the catheter tube. The catheter tube was wiped dry. K-Y jelly was applied to the tip, avoiding contact with the eye of the tube, and the tube was inserted into the colon through the anus until the tube was no longer visible. The solution was injected by pressing the syringe plunger, and the tube was removed.
Blood samples were collected serially from the tail artery, typically at 0, 15, 30, 45, 60 and 90 minutes after oral administration and 0, 10, 20, 30, 60 and 90 minutes after IC administration. The five samples from each time period were pooled (except for where compound 1 was dosed). Serum rHGH concentrations were quantified by an rHGH immunoassay test kit (Kit # K1F4015 from Genzyme Corporation Inc., Cambridge, Mass.). Previous studies indicated baseline values of about zero.
The maximum concentration for each group and the area under the curve (AUC), when available, are reported below in Table 3.

Row | Mean Peak Serum [rhGH] | Structure (SMILES)
1 | 14.64 ng/mL | O=C(O)CCCCCCc1nnc(-c2cc(Cl)ccc2O)o1 [Compound 5]
2 | 0 ng/mL | O=C(O)CCCCCCc1nnc(-c2cc(Cl)cc(Cl)c2O)o1 [Compound 6]
3 | 0 ng/mL | Cc1nnc(CCCCCCC(=O)O)o1 [Compound 12]

Row | Structure (SMILES) | Mean Peak Serum [rhGH]
4 | COc1ccc(-c2nnc(CCCCC(=O)O)o2)c(O)c1 [Compound 9] | 14.25 ng/mL
